Reference: publication PMC9312238, “Novel Organoselenium Redox Modulators with Potential Anticancer, Antimicrobial, and Antioxidant Activities” (Antioxidants, 2022)
≈ marks a conversion by molar mass, not a printed value. Where two headings read alike, the source gives them in different places.

Legend:
Type in all cases: cell-based
[1] = tested on: Escherichia coli; assay: MIC by microdilution, E. coli
Protocol: (§1) The antimicrobial activities of the OSe compounds were evaluated against C. albicans yeast, as well as E. coli and S. bacteria, employing the agar well diffusion assay. Furthermore, the MICs (in µM) were determined by the microdilution method according to the reported protocol. More details are in the Supporting Information.
1.1. The biological assays
1.1.1. The anticancer activity
The breast adenocarcinoma (MCF-7), Hepatocellular carcinoma (HEPG-2), and nor-mal fibroblast (WI-38) cells were obtained from ATCC via Holding company for biological products and vaccines (VACSERA), Cairo, Egypt. The reagents RPMI-1640 medium, MTT, DMSO, and fetal bovine serum was obtained from Sigma Aldrich. Dulbecco’s modified Eagle’s medium was used as the culture medium for the cells, and the cytotoxicity was evaluated using the reported MTT assay. […]
Cell lines were cultured in RPMI-1640 medium with 10% fetal bovine serum. […] The colorimetric assay is measured and recorded at an absorbance of 570 nm using a plate reader (EXL 800, USA). The percentage of the relative cell viability was calculated as (A570 of treated samples/A570 of the untreated sample) X 100. […]
The antimicrobial activities of the OSe compounds were evaluated against C. albicans yeast as well as E. coli gram-negative and S. aureus gram-positive bacteria employing the agar well diffusion assay. […]

[2] = tested on: Candida albicans; assay: MIC by microdilution, C. albicans; settings: read-out: MIC (μM) C. albicans
Protocol: as §1, with “Information. […]” for “Information.”
(§2) 1.1.1. The antimicrobial activity
(§3) The antimicrobial activities of the OSe compounds were evaluated against C. albicans yeast as well as E. coli gram-negative and S. aureus gram-positive bacteria employing the agar well diffusion assay. Briefly, a concentration of 1 mM was prepared for each compound by dissolving in DMSO. Paper discs of standard size […] were steri-lized in an autoclave and soaked in 20 µL of the test compounds, and placed in the Petri dishes, which in turn contain a nutrient media (agar 20 g, peptone 5 g, and beef extract 3 g) seeded with the dedicated strain. Incubation lasted for 24 h at 36
(§4) Furthermore, the MICs (in µM) were determined by the microdilution method according to the reported protocol. […]
(§5) Inhibition%= (Ablank-Asample)/(Ablank)*100. (1)

[3] = tested on: Staphylococcus aureus; assay: MIC by microdilution, S. aureus
Protocol: as §1, with “Information. […]” for “Information.”
as §2, §3, §4, §5

| Compound | MIC (μM) E. coli ([1]; microdilution) | MIC ([2]; microdilution) | MIC (μM) S. aureus ([3]; microdilution) | MIC ([1]; Escherichia coli, read-out: MIC (μM) E. coli) | MIC ([2]; Candida albicans) | MIC ([3]; Staphylococcus aureus, read-out: MIC (μM) S. aureus) |
| --- | --- | --- | --- | --- | --- | --- |
| 2-((4-(2-(3-hydroxynaphthalen-1(4H)-ylidene)hydrazinyl)phenyl)selanyl)-N-phenylacetamide [Compound 9] | 0.5 µM | 2 µM | 1 µM | – | – | – |
| Nc1ccc([Se]CC(=O)N[C@@H](Cc2c[nH]c3ccccc23)C(=O)O)cc1 [Compound 6, (2-((4-aminophenyl)selanyl)acetyl)tryptophan] | – | – | – | 1 µM (≈ 0.416 µg/mL) | 8 µM (≈ 3.33 µg/mL) | 2 µM (≈ 0.833 µg/mL) |
